# Species on record: Rattus norvegicus
# Assay: Open TG-GATES - Regimen: Single
# Type: toxicity, organism-based, Sprague-Dawley
# Design: regimen Single, gender Male, age 6 weeks
# Details: in vivo, po, 0 mg/kg, route gavage, dose level Control; for APTT / Bas / Eos / Fbg / Hb / Ht / Lym / MCH / MCHC / MCV / Mono / Neu / PT / Plat / RBC / Ret / WBC: tissue Blood; for KIDNEY_L / KIDNEY_R / KIDNEY_TOTAL: tissue Kidney; for LIVER: tissue Liver; for A/G / ALP / ALT / AST / BUN / CRE / Ca / Cl / DBIL / GLC / IP / K / LDH / Na / PL / RALB / TBIL / TC / TG / TP / gamma-GTP: tissue Plasma
compound,measurement,setting,value
CC1=C(CC(=O)O)c2cc(F)ccc2/C1=C\c1ccc([S+](C)[O-])cc1 (configuration not stated),TERMINAL_BW,3 h,203.6 g
same,APTT,3 h,20.8 s
same,Bas,3 h,0.2%
same,Eos,3 h,0.8%
same,Fbg,3 h,275 mg/dL
same,Hb,3 h,13.9 g/dL
same,Ht,3 h,42%
same,Lym,3 h,77.4%
same,MCH,3 h,21.5 pg
same,MCHC,3 h,33.1%
same,MCV,3 h,65.1 fL
same,Mono,3 h,2.8%
same,Neu,3 h,18.6%
same,PT,3 h,14.2 s
same,Plat,3 h,116.8 x10_4/uL
same,RBC,3 h,645.6 x10_4/ul
same,Ret,3 h,7.9%
same,WBC,3 h,80.3 x10_2/uL
same,KIDNEY_L,3 h,0.8 g
same,KIDNEY_R,3 h,0.9 g
same,KIDNEY_TOTAL,3 h,1.7 g
same,LIVER,3 h,9.3 g
same,A/G,3 h,0.9
same,ALP,3 h,1495.6 IU/L
same,ALT,3 h,41.6 IU/L
same,AST,3 h,79.8 IU/L
same,BUN,3 h,10.4 mg/dL
same,CRE,3 h,0.2 mg/dL
same,Ca,3 h,10.9 mg/dL
same,Cl,3 h,105.4 meq/L
same,DBIL,3 h,0.01 mg/dL
same,GLC,3 h,168 mg/dL
same,IP,3 h,8.7 mg/dL
same,K,3 h,3.9 meq/L
same,LDH,3 h,79.6 IU/L
same,Na,3 h,142.4 meq/L
same,PL,3 h,150.6 mg/dL
same,RALB,3 h,2.6 g/dL
same,TBIL,3 h,0.024 mg/dL
same,TC,3 h,80.8 mg/dL
same,TG,3 h,65.4 mg/dL
same,TP,3 h,5.4 g/dL
same,gamma-GTP,3 h,1 IU/L
same,TERMINAL_BW,6 h,197.1 g
same,APTT,6 h,17.8 s
same,Bas,6 h,0%
same,Eos,6 h,1%
same,Fbg,6 h,281.8 mg/dL
same,Hb,6 h,13.8 g/dL
same,Ht,6 h,42.2%
same,Lym,6 h,78.6%
same,MCH,6 h,20.7 pg
same,MCHC,6 h,32.8%
same,MCV,6 h,62.9 fL
same,Mono,6 h,2.8%
same,Neu,6 h,17%
same,PT,6 h,14.2 s
same,Plat,6 h,121.9 x10_4/uL
same,RBC,6 h,670.4 x10_4/ul
same,Ret,6 h,7.7%
same,WBC,6 h,78.4 x10_2/uL
same,KIDNEY_L,6 h,0.8 g
same,KIDNEY_R,6 h,0.9 g
same,KIDNEY_TOTAL,6 h,1.7 g
same,LIVER,6 h,8 g
same,A/G,6 h,0.9
same,ALP,6 h,1387.6 IU/L
same,ALT,6 h,38.2 IU/L
same,AST,6 h,72 IU/L
same,BUN,6 h,7.4 mg/dL
same,CRE,6 h,0.2 mg/dL
same,Ca,6 h,10.6 mg/dL
same,Cl,6 h,106.4 meq/L
same,DBIL,6 h,0.002 mg/dL
same,GLC,6 h,171.8 mg/dL
same,IP,6 h,9.5 mg/dL
same,K,6 h,4.1 meq/L
same,LDH,6 h,71.6 IU/L
same,Na,6 h,142 meq/L
same,PL,6 h,142 mg/dL
same,RALB,6 h,2.5 g/dL
same,TBIL,6 h,0.03 mg/dL
same,TC,6 h,83.6 mg/dL
same,TG,6 h,37.4 mg/dL
same,TP,6 h,5.2 g/dL
same,gamma-GTP,6 h,1.6 IU/L
same,TERMINAL_BW,9 h,198.3 g
same,APTT,9 h,16.6 s
same,Bas,9 h,0%
same,Eos,9 h,0.8%
same,Fbg,9 h,308.8 mg/dL
same,Hb,9 h,13.9 g/dL
same,Ht,9 h,42.5%
same,Lym,9 h,81.6%
same,MCH,9 h,21.1 pg
same,MCHC,9 h,32.7%
same,MCV,9 h,64.8 fL
same,Mono,9 h,2%
same,Neu,9 h,15%
same,PT,9 h,13.8 s
same,Plat,9 h,120.2 x10_4/uL
same,RBC,9 h,655.8 x10_4/ul
same,Ret,9 h,7.7%
same,WBC,9 h,58.8 x10_2/uL
same,KIDNEY_L,9 h,0.9 g
same,KIDNEY_R,9 h,0.9 g
same,KIDNEY_TOTAL,9 h,1.9 g
same,LIVER,9 h,7.9 g
same,A/G,9 h,1
same,ALP,9 h,1678 IU/L
same,ALT,9 h,36.8 IU/L
same,AST,9 h,70 IU/L
same,BUN,9 h,10 mg/dL
same,CRE,9 h,0.2 mg/dL
same,Ca,9 h,10.6 mg/dL
same,Cl,9 h,107.8 meq/L
same,DBIL,9 h,0.004 mg/dL
same,GLC,9 h,182 mg/dL
same,IP,9 h,10.1 mg/dL
same,K,9 h,4.3 meq/L
same,LDH,9 h,65.6 IU/L
same,Na,9 h,142.4 meq/L
same,PL,9 h,142 mg/dL
same,RALB,9 h,2.6 g/dL
same,TBIL,9 h,0.03 mg/dL
same,TC,9 h,83 mg/dL
same,TG,9 h,47.6 mg/dL
same,TP,9 h,5.3 g/dL
same,gamma-GTP,9 h,1 IU/L
same,TERMINAL_BW,24 h,215.3 g
same,APTT,24 h,16 s
same,Bas,24 h,0%
same,Eos,24 h,1%
same,Fbg,24 h,292.8 mg/dL
same,Hb,24 h,13.7 g/dL
same,Ht,24 h,42.7%
same,Lym,24 h,77.6%
same,MCH,24 h,21 pg
same,MCHC,24 h,32.2%
same,MCV,24 h,65.2 fL
same,Mono,24 h,2.8%
same,Neu,24 h,18.2%
same,PT,24 h,13.7 s
same,Plat,24 h,140.1 x10_4/uL
same,RBC,24 h,654.6 x10_4/ul
same,Ret,24 h,7.3%
same,WBC,24 h,87.2 x10_2/uL
same,KIDNEY_L,24 h,0.9 g
same,KIDNEY_R,24 h,0.9 g
same,KIDNEY_TOTAL,24 h,1.8 g
same,LIVER,24 h,9.8 g
same,A/G,24 h,0.9
same,ALP,24 h,1542 IU/L
same,ALT,24 h,49 IU/L
same,AST,24 h,74 IU/L
same,BUN,24 h,13.2 mg/dL
same,CRE,24 h,0.2 mg/dL
same,Ca,24 h,11 mg/dL
same,Cl,24 h,106.4 meq/L
same,DBIL,24 h,0.01 mg/dL
same,GLC,24 h,182.6 mg/dL
same,IP,24 h,7.3 mg/dL
same,K,24 h,4.1 meq/L
same,LDH,24 h,75 IU/L
same,Na,24 h,142.2 meq/L
same,PL,24 h,153 mg/dL
same,RALB,24 h,2.7 g/dL
same,TBIL,24 h,0.02 mg/dL
same,TC,24 h,83.2 mg/dL
same,TG,24 h,82.2 mg/dL
same,TP,24 h,5.5 g/dL
same,gamma-GTP,24 h,1 IU/L

# From ChEMBL document CHEMBL3885861, “Open TG-GATES”
